In ChEMBL document CHEMBL1201862, “PubChem BioAssay data set” (2004):
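Growth conditions: 96-well plates. Treatment: test compound, 48 hours, 5 concentrations. Analysis: linear interpolation between bracketing concentrations; unreached endpoints set to highest concentration. At the GI50, growth is halved.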 The source made the active and inactive calls. No stated cut-off is given here; in the data, active = GI50 up to about 1.1 µM and inactive = higher. Peptide text beside a SMILES is read from it. * marks the point of attachment. Trt = c1ccc(C(c2ccccc2)(c2ccccc2)*)cc1; Cbz = O=C(OCc1ccccc1)*

Columns and labels:
Assay in all cases: NCI anticancer screen, dose series, 48 h
CAKI-1 = system: CAKI-1
SF-295 = system: SF-295
COLO 205 = system: COLO 205
DU-145 = system: DU-145
HL-60 = system: HL-60
NCI-H226 = system: NCI-H226
SR = system: SR
UO-31 = system: UO-31
SW-620 = system: SW-620
NCI-H23 = system: NCI-H23
RXF 393 = system: RXF 393
MOLT-4 = system: MOLT-4
HCT-15 = system: HCT-15
SK-MEL-5 = system: SK-MEL-5
LOX IMVI = system: LOX IMVI
Malme-3M = system: Malme-3M
HCC 2998 = system: HCC 2998
UACC-62 = system: UACC-62
T47D = system: T47D
A549 = system: A549

O=C(O)CC1(C(=O)O)CCCCC1
GI50 (CAKI-1): > 100 µM (inactive) | GI50 (SF-295): > 100 µM (inactive) | GI50 (COLO 205): > 100 µM (inactive) | GI50 (DU-145): > 100 µM (inactive) | GI50 (HL-60): > 100 µM (inactive) | GI50 (NCI-H226): > 100 µM (inactive) | GI50 (SR): > 100 µM (inactive) | GI50 (UO-31): > 100 µM (inactive) | GI50 (SW-620): > 100 µM (inactive) | GI50 (NCI-H23): > 100 µM (inactive) | GI50 (RXF 393): > 100 µM (inactive) | GI50 (MOLT-4): > 100 µM (inactive) | GI50 (HCT-15): > 100 µM | GI50 (SK-MEL-5): > 100 µM (inactive) | GI50 (LOX IMVI): > 100 µM (inactive) | GI50 (Malme-3M): > 100 µM (inactive) | GI50 (HCC 2998): > 100 µM (inactive) | GI50 (UACC-62): > 100 µM (inactive) | GI50 (T47D): > 100 µM (inactive) | GI50 (A549): > 100 µM (inactive)

CC(=O)C1(C)CC(C#N)(C#N)C(C#N)=C1N (stereo not given)
GI50 (CAKI-1): 66.8 µM (inactive) | GI50 (SF-295): > 100 µM (inactive) | GI50 (COLO 205): > 100 µM (inactive) | GI50 (DU-145): > 100 µM (inactive) | GI50 (HL-60): > 100 µM (inactive) | GI50 (NCI-H226): > 100 µM (inactive) | GI50 (SR): 56.2 µM (inactive) | GI50 (UO-31): > 100 µM (inactive) | GI50 (SW-620): > 100 µM (inactive) | GI50 (NCI-H23): > 100 µM (inactive) | GI50 (RXF 393): > 100 µM (inactive) | GI50 (MOLT-4): > 100 µM (inactive) | GI50 (HCT-15): > 100 µM | GI50 (SK-MEL-5): > 100 µM (inactive) | GI50 (LOX IMVI): > 100 µM (inactive) | GI50 (Malme-3M): > 100 µM (inactive) | GI50 (HCC 2998): > 100 µM (inactive) | GI50 (UACC-62): > 100 µM (inactive) | GI50 (T47D): > 100 µM (inactive) | GI50 (A549): 25.1 µM (inactive)

CCOc1ccc(C(=O)/C=C2/Nc3ccccc3N/C2=C/C(=O)c2ccc(OCC)cc2)cc1
GI50 (CAKI-1): > 100 µM (inactive) | GI50 (SF-295): > 100 µM (inactive) | GI50 (COLO 205): > 100 µM (inactive) | GI50 (DU-145): > 100 µM (inactive) | GI50 (HL-60): > 100 µM (inactive) | GI50 (NCI-H226): > 100 µM (inactive) | GI50 (SR): 3.43 µM (inactive) | GI50 (UO-31): > 100 µM (inactive) | GI50 (SW-620): > 100 µM (inactive) | GI50 (NCI-H23): > 100 µM (inactive) | GI50 (RXF 393): > 100 µM (inactive) | GI50 (MOLT-4): 81.3 µM (inactive) | GI50 (HCT-15): 96.4 µM | GI50 (SK-MEL-5): > 100 µM (inactive) | GI50 (LOX IMVI): > 100 µM (inactive) | GI50 (Malme-3M): 41.7 µM (inactive) | GI50 (HCC 2998): > 100 µM (inactive) | GI50 (UACC-62): > 100 µM (inactive) | GI50 (T47D): > 100 µM (inactive) | GI50 (A549): > 100 µM (inactive)

O=C(O)c1ccc(NNC(=O)c2cccc3c(=O)c4ccccc4[nH]c23)cc1
GI50 (CAKI-1): > 100 µM (inactive) | GI50 (SF-295): > 100 µM (inactive) | GI50 (COLO 205): > 100 µM (inactive) | GI50 (DU-145): > 100 µM (inactive) | GI50 (HL-60): 50.8 µM (inactive) | GI50 (NCI-H226): > 100 µM (inactive) | GI50 (SR): 93.5 µM (inactive) | GI50 (UO-31): 89.7 µM (inactive) | GI50 (SW-620): > 100 µM (inactive) | GI50 (NCI-H23): > 100 µM (inactive) | GI50 (RXF 393): > 100 µM (inactive) | GI50 (MOLT-4): 78.9 µM (inactive) | GI50 (HCT-15): > 100 µM | GI50 (SK-MEL-5): 55.5 µM (inactive) | GI50 (LOX IMVI): 44.6 µM (inactive) | GI50 (Malme-3M): 97.9 µM (inactive) | GI50 (HCC 2998): > 100 µM (inactive) | GI50 (UACC-62): > 100 µM (inactive) | GI50 (T47D): 31.6 µM (inactive) | GI50 (A549): > 100 µM (inactive)

CC1C(=O)O[B-]2(c3ccccc3)Oc3ccccc3C=[N+]12 (stereo not given)
GI50 (CAKI-1): > 100 µM (inactive) | GI50 (SF-295): > 100 µM (inactive) | GI50 (COLO 205): > 100 µM (inactive) | GI50 (DU-145): > 100 µM (inactive) | GI50 (HL-60): 96.4 µM (inactive) | GI50 (NCI-H226): > 100 µM (inactive) | GI50 (SR): > 100 µM (inactive) | GI50 (UO-31): > 100 µM (inactive) | GI50 (SW-620): > 100 µM (inactive) | GI50 (NCI-H23): > 100 µM (inactive) | GI50 (RXF 393): > 100 µM (inactive) | GI50 (MOLT-4): > 100 µM (inactive) | GI50 (HCT-15): > 100 µM | GI50 (SK-MEL-5): > 100 µM (inactive) | GI50 (LOX IMVI): > 100 µM (inactive) | GI50 (Malme-3M): > 100 µM (inactive) | GI50 (HCC 2998): > 100 µM (inactive) | GI50 (UACC-62): > 100 µM (inactive) | GI50 (T47D): > 100 µM (inactive) | GI50 (A549): > 100 µM (inactive)

CN(C)CCn1c(=O)c2ccc3c4c(nn3CCN(C)C)c3cc(N)ccc3n(c1=O)c24
GI50 (CAKI-1): 0.0741 µM (active) | GI50 (SF-295): 0.0145 µM (active) | GI50 (COLO 205): < 0.0239 µM (active) | GI50 (DU-145): < 0.0167 µM (active) | GI50 (HL-60): 0.0279 µM (active) | GI50 (NCI-H226): 0.0791 µM (active) | GI50 (SR): < 0.0103 µM (active) | GI50 (UO-31): < 0.0132 µM (active) | GI50 (SW-620): < 0.0148 µM (active) | GI50 (NCI-H23): < 0.01 µM (active) | GI50 (RXF 393): < 0.032 µM (active) | GI50 (MOLT-4): < 0.011 µM (active) | GI50 (HCT-15): < 0.0169 µM | GI50 (SK-MEL-5): 0.0516 µM (active) | GI50 (LOX IMVI): 0.0154 µM (active) | GI50 (Malme-3M): 0.0667 µM (active) | GI50 (HCC 2998): < 0.01 µM (active) | GI50 (UACC-62): 0.0902 µM (active) | GI50 (T47D): 0.0312 µM (active) | GI50 (A549): < 0.01 µM (active)

COC(=O)C(CO)NC(=O)C(CSC(c1ccccc1)(c1ccccc1)c1ccccc1)NC(=O)OCc1ccccc1 (stereo not given) (Cbz-Cys(Trt)-Ser-OMe; configuration not given here)
GI50 (CAKI-1): 16.6 µM (inactive) | GI50 (SF-295): 17.1 µM (inactive) | GI50 (COLO 205): 15.6 µM (inactive) | GI50 (DU-145): 19.1 µM (inactive) | GI50 (HL-60): 5.75 µM (inactive) | GI50 (NCI-H226): 12.2 µM (inactive) | GI50 (SR): 0.158 µM (active) | GI50 (UO-31): 14.5 µM (inactive) | GI50 (SW-620): 15.5 µM (inactive) | GI50 (NCI-H23): 17.9 µM (inactive) | GI50 (RXF 393): 8.91 µM (inactive) | GI50 (MOLT-4): 0.61 µM (active) | GI50 (HCT-15): 19.2 µM | GI50 (SK-MEL-5): 15.1 µM (inactive) | GI50 (LOX IMVI): 15.7 µM (inactive) | GI50 (Malme-3M): 14.5 µM (inactive) | GI50 (HCC 2998): 14.9 µM (inactive) | GI50 (UACC-62): 12.1 µM (inactive) | GI50 (T47D): 20.7 µM (inactive) | GI50 (A549): 13.4 µM (inactive)
